“Also recorded” adds a separate entry of the source.
How the values were obtained:
[1] = test system: intraperitoneal L1210 mouse leukemia; test: In vivo antitumor activity of liposomal Pt-complexes
Protocol: In vivo. The in vivo antitumor activity of liposomal Pt-complexes was assessed against intraperitoneal L1210 mouse leukemia. […] The results were expressed as the median survival of treated animals divided by the median survival of control animals ×100 (% T/C).

[2] = Intraliposomal stability of Pt-complexes by HPLC; type: physicochemical; conditions: for intraliposomal stability (in words): DMPC:DMPG liposomes, saline or PBS; for percentage of intact Pt-complex: in liposomes, 6 h after liposome preparation; for NDDP stability (%): liposomal NDDP, lipids as dry powder
Protocol: Stability of the different Pt-complexes incorporated in liposomes was determined as described previously by comparing the HPLC profiles as a function of time. In brief, aliquoted samples of liposome suspension were diluted (7×) with methanol at 0, 2, 6, and 24 h after liposome preparation, and each sample was then monitored by HPLC using chromega-8 bond column (4.6 mm×25 cm, 8 μm: ES Industries, NJ) and 10% water-methanol as eluant. The flow rate was 1 ml/min, and the complexes were detected by UV at 224 nm wavelength.

[3] = Tracking of liposomal NDDP degradation by 195Pt NMR and HPLC; type: physicochemical
Protocol: To characterize the active intermediate(s) in the reaction cascade of L-NDDP reconstituted in saline (0.9% NaCl), tracking experiments using ^195Pt NMR spectra in combination with ^31P NMR were performed. Samples 1–3 were prepared using the lipids DMPC and DMPG purchased in chloroform solution, while samples 4–8 were prepared using lipids in dry powder. In samples 1–3, the chloroform was initially evaporated in a rotavapor. The lipid film was dissolved in t-butanol containing the NDDP in solution. An aliquot of this solution was kept at 40° C. for 6 h and then lyophilized and extracted with methanol (sample 3). The remaining was lyophilized immediately, thus resulting in a preliposomal powder, which was reconstituted with saline to produce the liposome suspension. The liposome suspension was kept at room temperature for 6 hours. The Pt compounds and lipids were then extracted with chloroform (sample 1) or the sample was lyophilized to eliminate the water and the powder dissolved in methanol (sample 2) (see FIG. 6). Samples 4, 5, and 6 were prepared by complete evaporation of solvents after keeping the samples at 40° C. for 6 h, and redissolving them in methanol. Samples 7 and 8 were prepared by lyophilization of water for 1–2 d and redissolution in methanol. All samples were prechecked by HPLC before tracking with NMR. Chemical shifts of the products are expressed in parts-per-million relative to Na2PtCl6 in ^195Pt and DMPC in ^31P NMR.

[4] = Liposome entrapment (entrapment efficiency, free drug crystals by optic microscopy); type: physicochemical; conditions: generated within the liposome membranes from NDDP
Source text: NDDP and its two isomers, B10 and L10 were formulated in liposomes composed of combinations of various lipids including DMPC, DMPG, DOPC, DOPG, PA, PE, and PS. The liposomes were formed by reconstituting preliposomal powders containing the Pt-complex and the lipids with unbuffered 0.9% NaCl aqueous solution (saline) or phosphate-buffered saline (PBS). […] The median size of the multilamellar vesicles was 1–2 μm in all preparations. The median size of the small-size liposomes prepared by ultrasonication of multilamellar vesicles was 50–100 nm.

[5] = Solubility of DACH-Pt-Cl2; type: physicochemical
[6] = liposomal, DMPC:DMPG 7:3, lipids in chloroform, reconstituted in PBS, 25 mg/kg i.p. day 1
[7] = liposomal, DMPC:DMPG 7:3, lipids in chloroform, reconstituted in PBS, 50 mg/kg i.p. day 1
[8] = liposomal, DMPC:DMPG 7:3, lipids in chloroform, reconstituted in PBS, 100 mg/kg i.p. day 1
[9] = liposomal, DMPC:DMPG 7:3, lipids in chloroform, reconstituted in PBS, 150 mg/kg i.p. day 1
[10] = liposomal, DMPC:DMPG 7:3, lipids in chloroform, reconstituted in saline, 25 mg/kg i.p. day 1
[11] = liposomal, DMPC:DMPG 7:3, lipids in chloroform, reconstituted in saline, 50 mg/kg i.p. day 1
[12] = liposomal, DMPC:DMPG 7:3, lipids in chloroform, reconstituted in saline, 100 mg/kg i.p. day 1
[13] = liposomal, DMPC:DMPG 7:3, lipids in chloroform, reconstituted in saline, 150 mg/kg i.p. day 1
[14] = liposomal, lipids in chloroform, reconstituted in PBS
[15] = liposomal, lipids in chloroform, reconstituted in saline

CCCCCCC(C)(C)C(=O)[O][Pt][O]C(=O)C(C)(C)CCCCCC.N[C@@H]1CCCC[C@H]1N [B10]
% T/C [1, 6]: 114%
% T/C [1, 7]: 114%
% T/C [1, 8]: 142%
% T/C [1, 9]: 163%
% T/C [1, 10]: 114%
% T/C [1, 11]: 128%
% T/C [1, 12]: 228%
% T/C [1, 13]: 163%
antitumor activity (in words) [1, 14]: no significant antitumor activity
optimal dose [1, 15]: 100 mg
intraliposomal stability (in words) [2]: intermediate stability
percentage of intact Pt-complex ([2]; reconstituted in PBS): 95.9%
percentage of intact Pt-complex ([2]; reconstituted in saline): 85.0%

N.N.[Cl][Pt][Cl] [Cisplatin, cis-dichlorodiamine-platinum(II), reference compound]
% T/C ([1]; Table 2 comparator, 10 mg/kg i.p. day 1, printed in the Saline column): 142%
% T/C ([1]; Table 3 comparator, 10 mg/kg, printed in the 6 h column): 150%

CCCCCCCCCC(=O)[O][Pt][O]C(=O)CCCCCCCCC.N[C@@H]1CCCC[C@H]1N [L10]
% T/C [1, 6]: 114%
% T/C [1, 7]: 100%
% T/C [1, 8]: 100%
% T/C [1, 9]: 100%
% T/C [1, 10]: 100%
% T/C [1, 11]: 157%
% T/C [1, 12]: 178%
% T/C [1, 13]: 123%
antitumor activity (in words) [1, 14]: no significant antitumor activity
optimal dose [1, 15]: 100 mg
intraliposomal stability (in words) [2]: highly stable
percentage of intact Pt-complex ([2]; reconstituted in PBS): 100%
percentage of intact Pt-complex ([2]; reconstituted in saline): 93.1%

cis-bis-neodecanoato-trans-R,R-1,2-diaminocyclohexane platinum (II) [NDDP]
% T/C [1, 6]: 114%
% T/C [1, 7]: 171%
% T/C [1, 8]: 200%
% T/C [1, 9]: 150%
% T/C [1, 10]: 157%
% T/C [1, 11]: 211%
% T/C [1, 12]: Toxic
% T/C [1, 13]: Toxic
optimal dose ([1]; liposomal, dry lipids, reconstituted with saline of pH 3.0): 25 mg/kg
optimal dose ([1]; liposomal, dry lipids, reconstituted with saline of pH 5.0): 50 mg/kg
optimal dose ([1]; liposomal, dry lipids, reconstituted with saline of pH 7.0): 100 mg/kg
% T/C ([1]; liposomal, dry lipids, saline pH 3.0, 12.5 mg/kg, administered 6 h after reconstitution): 157%
% T/C at the optimal dose ([1]; liposomal, dry lipids, saline pH 3.0, 25 mg/kg): 214%
% T/C ([1]; liposomal, dry lipids, saline pH 3.0, 25 mg/kg, administered 10 min after reconstitution): 150%
% T/C ([1]; liposomal, dry lipids, saline pH 3.0, 25 mg/kg, administered 2 h after reconstitution): 186%
% T/C ([1]; liposomal, dry lipids, saline pH 3.0, 25 mg/kg, administered 6 h after reconstitution): 240%
% T/C ([1]; liposomal, dry lipids, saline pH 3.0, 50 mg/kg, administered 6 h after reconstitution): Toxic
% T/C ([1]; liposomal, dry lipids, saline pH 5.0, 12.5 mg/kg, administered 6 h after reconstitution): 186%
% T/C ([1]; liposomal, dry lipids, saline pH 5.0, 25 mg/kg, administered 6 h after reconstitution): 200%
% T/C at the optimal dose ([1]; liposomal, dry lipids, saline pH 5.0, 50 mg/kg): 271%
% T/C ([1]; liposomal, dry lipids, saline pH 5.0, 50 mg/kg, administered 10 min after reconstitution): 133%
% T/C ([1]; liposomal, dry lipids, saline pH 5.0, 50 mg/kg, administered 2 h after reconstitution): 216%
% T/C ([1]; liposomal, dry lipids, saline pH 5.0, 50 mg/kg, administered 6 h after reconstitution): 270%
% T/C ([1]; liposomal, dry lipids, saline pH 5.0, 100 mg/kg, administered 6 h after reconstitution): Toxic
% T/C ([1]; liposomal, dry lipids, saline pH 7.0, 25 mg/kg, administered 6 h after reconstitution): 186%
% T/C ([1]; liposomal, dry lipids, saline pH 7.0, 50 mg/kg, administered 6 h after reconstitution): 200%
% T/C at the optimal dose ([1]; liposomal, dry lipids, saline pH 7.0, 100 mg/kg): 271%
% T/C ([1]; liposomal, dry lipids, saline pH 7.0, 100 mg/kg, administered 10 min after reconstitution): 163%
% T/C ([1]; liposomal, dry lipids, saline pH 7.0, 100 mg/kg, administered 2 h after reconstitution): 216%
% T/C ([1]; liposomal, dry lipids, saline pH 7.0, 100 mg/kg, administered 6 h after reconstitution): 257%
optimal dose [1, 14]: 100 mg/kg
optimal dose [1, 15]: 50 mg/kg
stability in the absence of DMPG ([3]; liposomes composed of only DMPC): completely preserved stability
degradation of NDDP ([3]; sample 7: dry-powder lipids, saline pH 6.5–7.0, 6 h at room temperature): < 5%
degradation of NDDP ([3]; sample 8: dry-powder lipids, acidic saline pH 3.0–4.0, in 10 min, yielding DACH-Pt—Cl2): 60–95%
original NDDP remaining ([2]; 24 h, DMPC:DMPG 7:3, NDDP:total lipid ratio 1:15 or 1:30): 25%
initial NDDP present ([2]; 24 hours, DMPC:DMPG 7:3, NDDP:total lipid ratio 1:5 or 1:10): 85%
intraliposomal stability (in words) [2]: rather unstable
percentage of intact Pt-complex ([2]; reconstituted in PBS): 82.1%
percentage of intact Pt-complex ([2]; reconstituted in saline): 43.7%
NDDP stability (%) ([2]; saline pH 3.0, 10 min after reconstitution): 43%
NDDP stability (%) ([2]; saline pH 3.0, 2 h after reconstitution): 15%
NDDP stability (%) ([2]; saline pH 3.0, 6 h after reconstitution): 7%
NDDP stability (%) ([2]; saline pH 5.0, 10 min after reconstitution): 80%
NDDP stability (%) ([2]; saline pH 5.0, 1 h after reconstitution): 72%
NDDP stability (%) ([2]; saline pH 5.0, 2 h after reconstitution): 67%
NDDP stability (%) ([2]; saline pH 5.0, 6 h after reconstitution): 38%
NDDP stability (%) ([2]; saline pH 7.0, 10 min after reconstitution): 100%
NDDP stability (%) ([2]; saline pH 7.0, 2 h after reconstitution): 95%
NDDP stability (%) ([2]; saline pH 7.0, 6 h after reconstitution): 92%
NDDP transformed into the active Pt-species ([2]; saline pH 5.0, calculated amount of activated species (35 mg/kg of 50 mg/kg)): about 70%
NDDP transformed into the active Pt-species ([2]; saline pH 7.0, calculated amount of activated species (10 mg/kg of 100 mg/kg)): 10%
effect of liposome size on intraliposomal stability ([2]; ultrasonication of multilamellar vesicles, regardless of lipid composition): did not affect the intraliposomal stability

dichloro(1,2-diaminocyclohexane) platinum(II) [DACH-Pt—Cl2]
time the drug remains liposome-bound without leaking out and crystallizing [4]: at least 24 h
solubility in dimethylformamide ([5]; dimethylformamide (DMF)): good solubility
solubility in most organic solvents ([5]; most organic solvents): insoluble
solubility in water ([5]; water): very low solubility; also recorded: lack of solubility

Reference: patent US7029696B2, “Delivery and activation through liposome incorporation of diaminocyclohexane platinum(II) complexes” (priority 1996, dated 2006)
